These results are taken from patent EP2345639A1, “Cyclic hydroxylamine derivatives, their preparation and use as antioxidants” (ABIOGEN PHARMA S.p.A., priority 2009, dated 2011).

Data set [1] is described as follows: Acid dissociation constants (pKa) by titration. The class given is physicochemical. To be noted: pH at semi-neutralization point of titration with 0.1 N NaOH or HCl. The method, then:
The following equipment was used during the implementation of all the examples: • for melting point determination a Buchi B-540 instrument was used; • the pKa is the pH at the semi-neutralization point of titration using a Mettler Toledo DL-50 instrument with a 0.1 N NaOH or HC! solution; • the ^1H-NMR spectra were recorded at 300 MHz and the ^13C-NMR spectra were recorded at 75 MHz using a Varian Unity 300 instrument; • spectrophotometric measurements were carried out using a Lambda Perkin Elmer 15 UV/Vis spectrophotometer for the DPPH assay and a Wallac Victor 1420 multilabel counter spectrophotometer.

Data set [2] is described as follows: TEAC method (Trolox Equivalent Antioxidant Capacity Assay). To be noted: ratio of gradient to gradient of Trolox; 650 nm, 37 °C, about 90 minutes. It is filed as biochemical. From the text:
This assay is used to measure the total antioxidant activity of pure substances, biological fluids and plant compounds and is based on the reaction of antioxidants with the cation radical ABTS·^+ (2,2'-azinobis(3-ethylbenzothiazolin-6-sulphonate)). This cation radical is metastable and has to be generated just before the experiment by reacting ABTS with hydrogen peroxide in the presence of HRP. This radical can be reduced, with consequent loss of absorbance, by an antioxidant whose scavenging capacity can be measured spectrophotometrically at 650 nm. The test is carried out at 37 °C and the results are obtained from a comparison with Trolox (a synthetic antioxidant and hydrophilic analogue of vitamin E).
The ABTS solution S1 was prepared as follows: • 20 mg of ABTS were added to 50 mM of citric acid buffer (40 ml) at pH=4.5 and to the resulting solution there was added an aqueous solution of HRP (4.4 mg, 400 µl) and an aqueous solution of H2O2 (10 µl of a 30% solution diluted with 16.3 ml of water).
For each of the compounds (1)-(11), as synthesized above, there was prepared a 600 µM solution in water, methanol or DMSO according to its solubility, as well as a Trolox solution as reference.
Each solution was diluted to produce 6 solutions each at a concentration between 25 µM and 300 µM. From each of the diluted and divided solutions, there were withdrawn 20 µl to which 200 µl of solution S1 were then added.
The decrease in absorbance of each solution thus obtained was monitored at 650 nm until a stable value was reached (about 90 minutes).
For each set of 6 solutions and for the reference trolox solution, the absorption was given in graph form as a function of the amount of compound (nmol) in the solution. The gradient of the straight line obtained by linear interpolation was determined according to the least squares method. The TEAC value of each compound of the invention is given in the table below and is expressed as the ratio between the gradient of the resulting straight line and the gradient of the reference (trolox) straight line.

The next data set deals with healthy animals. Put plainly: Effect of the compounds on healthy animals (same in vivo assay, cerebral oxidative parameters). Details: species or system mice. To be noted: healthy mice; for Average % variation with respect to the vehicle: 50 mg/kg IP for three consecutive days, mean over all parameters, D = doxorubicin alone; for Brain/BWi / CAT/pr / GPX/pr / GSH/pr / GST/pr / Prot. Hmg / Prot. Ox/pr / SOD/pr: 50 mg/kg IP x3 days, percentage change relative to the vehicle. The method, then: (§1) 10 mice were used for each treatment group. For each compound 50 mg/kg were administered intraperitoneally (IP) for three consecutive days (day 0, 1 and 2); half the animals (5) also received IP 16.7 mg/kg of doxorubicin immediately after the first treatment (day 0). On the day after the last administration (day 3) the animals were killed by neck dislocation and the brains were removed, weighed and frozen in liquid nitrogen.
(§2) For the analyses of oxidative stress, 100 mg/ml of brain homogenate was prepared in HEB^(*) buffer (pH 7.4 EDTA/HEPES^(**)) containing a mixture of enzyme inhibitors (Leupeptin, Pepstatin, Aprotinin, BHA).
(§3) The evaluation parameters were: • BrW/BWi: ratio between final brain weight and initial body weight (day 0); • Prot. Hmg: total proteins in the homogenate (BCA method, i.e. bicinchoninic acid); • Prot. Ox: oxidized proteins in the Hmg by means of a colorimetric method using dinitrophenylhydrazone (DNPH); • GSH: reduced glutathione in the supernatant (sn) of the Hmg, obtained after precipitation with metaphosphoric acid (MPA), by means of a colorimetric method using dithiodinitrobenzene (DTNB); • CAT: catalase in the Hmg by a colorimetric method using potassium dichromate; • SOD: superoxide dismutase by a colorimetric method using SOD Reagent (xanthine, EDTA, nitroblue tetrazole, Na2CO3, BSA, i.e. bovine serum albumin); • GST: glutathione S-transferase in the supernatant by a colorimetric method using chlorodinitrobenzene (CDNB) and GSH; and • GPx: glutathione peroxidase in the supernatant after addition of GSH and t-BuOOH, heating and precipitation with MPA; followed by GSH method with DTNB. The assay was performed on the compounds (1)-(5) and (7)-(11) and on edaravone (E), as comparative compound.
The mean % effect, on all the parameters simultaneously, of the triple treatment in healthy animal, as mean percentage change relative to the vehicle. This value is useful as an approximate safety index of the oxidative state of the brain, i.e. the capacity of the compounds of the invention not to alter cerebral homeostasis in healthy animals.

Data set [3] can be described thus: Brain-to-plasma concentration ratio in mice. It is filed as in vivo, Female CD-1 mice. To be noted: female, CD-1, mouse, ip, 25 mg/kg intraperitoneal, area under the curve of brain and plasma concentrations 0 to 60 minutes, read-out: B/P ratio.
In data set [4] the test system is C6 cells (rat glioma) and BAEC cells (bovine aortic endothelial). Put plainly: In vitro inhibition of CHP-induced oxidative stress (DCF fluorescence). It is filed as cell-based. To be noted: 500 µM CHP, 4, 20, 100 and 500 µM compound, 30 minutes; depending on the concentrations and cell line. As to the method: The method used was essentially the one reported by Rüweler M. et al. ("Inhibition of peroxide-induced radical generation by plant polyphenols in C6 astroglioma cells" (2008) Toxicol in vitro 22, 1377-81), with a few minor modifications.
The cells were seeded in phenol-red free DMEM (Sigma Aldrich) into 96-well plates with 5% FBS and 20 mM HEPES at a density of 40,000 cells/well. After 48 hours, the medium was substituted by HBSS (Hanks' Balanced Salt Solution, Sigma) containing 10 µM of dihydro-2',7'-dichlorofluorescein diacetate (H2DCF-DA, Sigma Aldrich) and incubated in darkness for 30 minutes at 37 °C, in order to load the cells with fluorescent dye. H2DCF-DA was hydrolyzed enzymatically by the intracellular esterases to form non-fluorescent H2DCF, which was then rapidly oxidized to form 2',7'-dichlorofluorescein (DCF) being highly fluorescent in the presence of reactive species (RS). The intensity of DCF fluorescence is directly proportional to the amount of RS formed.
After carrying out two washes, the cells were exposed to 500 µM of CHP and various concentrations (4, 20, 100 and 500 µM) of the compounds of the invention for 30 minutes at 37 °C. Fluorescence was then measured, after cell washing, by a microplate reader at an excitation wavelength of 485 nm and an emission wavelength of 535 nm.
Six wells per plate per concentration of test composition (compound + CHP) and per control (HBSS without CHP) were measured and 12 wells were used as reference for CHP-induced stress. In addition, each 96-well plate contained 6 wells that received the highest concentration of the tested compounds without CHP, to investigate whether the compounds of the invention alone were able to induce cellular radical formation.
When using this assay, it should be borne in mind that DCF fluorescence is a generalized indicator of oxidative stress rather than of any particular reactive species, i.e. it is not a direct assay for H2O2 or other reactive species (Halliwell B, Whiteman M. (2004) "Measuring reactive species and oxidative damage in vivo and in cell culture: how should you do it and what do the results mean?" Br. J. Pharmacol. 142 231-255). Therefore, when an increase in DCF fluorescence induced by exposure of cells to CHP was measured, as was carried out in these assays, it was not possible to deduce which reactive species was responsible. Inhibition of CHP-induced fluorescence was evaluated by means of different concentrations of the compounds of the invention and comparative compounds such as Trolox and edaravone.

Data set [5] deals with doxorubicin-induced cerebral oxidative stress in mice. Put plainly: In vivo assay of cerebral oxidative stress induced in mice by doxorubicin (model and oxidized animals). To be noted: % incidence of D relative to V. As to the method:
The assay was carried out on compounds (1)-(5) and (7)-(11) and on edaravone (E) as comparative compound.
as §1, §2, §3
The mean effect (n=5 experiments) of doxorubicin (D), i.e. "oxidized" animal, relative to the vehicle (V), the vehicle representing the healthy animal.
All the parameters, with the exclusion of Brain/BWi and Prot. Hmg, were normalized for total Hmg proteins. The D value standard deviations and the % incidence relative to V are given in italics.
The effect of the tested compounds on the "oxidized" animals was given as % inhibition relative to the percentage change due to doxorubicin alone. The effect of the compounds on the oxidized animals can be expressed both as a function of the values of the vehicle (healthy, vehicle only) and as a function of the value of its own (healthy, compound only): • Vehicle: percentage [(Compound+D)/V]x100/[(V+D)/V]x100 • Its own: percentage [(Compound+D)/Compound]x100/[(V+D)/V]x100
Again in this case, the mean % effect relative to doxorubicin alone could be given for all the parameters simultaneously, as an approximate index of effectiveness on the cerebral oxidative state of the animal.

Molecules are shown by their SMILES.

In data set [1], `CC1(C)CC(=O)C(C2CC(C)(C)CCN2O)C(=O)C1` (centres unmarked) [(1), 2-(1-hydroxy-4,4-dimethylpiperidin-2-yl)-5,5-dimethylcyclohexane-1,3-dione] returned a pKa1 of 3.35 and a pKa2 of 6.83. Besides, in data set [2], the TEAC is recorded as 1.0. In the data set with healthy animals, the “Average % variation with respect to the vehicle” value (“Average % variation” for short) is listed as -7.0%. Further, the Kp in data set [3] was above 0.1. Further, in data set [4], the “Inhibition of CHP-induced fluorescence” value is listed as “effective”.

Consider `CC1(C)CCN(O)C(C2C(=O)CC(c3ccccc3)CC2=O)C1` (centres unmarked) [(2), 2-(1-hydroxy-4,4-dimethylpiperidin-2-yl)-5-phenylcyclohexane-1,3-dione], for which, in data set [1], the pKa1 is given as 3.21 and the pKa2 is listed as 6.85. In addition, the TEAC in data set [2] was determined as 0.6. For the same compound, in the data set on healthy animals (50 mg/kg), the “Average % variation” value is recorded as “did not significantly alter the parameters”. The “Average % variation” value in the data set on healthy animals (listed as V+(2), 50 mg/kg) was 3.6%. Also, in the data set on healthy animals, the Brain/BWi amounted to 7.6%, the CAT/pr is -2.9%, the GPX/pr is recorded as 6.6% and the GSH/pr came to 6.1%. Moreover, in the data set with healthy animals, the GST/pr is recorded as 5.8%, the “Prot. Hmg” value is on record as -2.2%, the “Prot. Ox/pr” value was -3.7% and the SOD/pr is on record as -0.2%. In addition, the Kp in data set [3] was above 0.1.

On to `O=C1CCCC(=O)C1C1COCCN1O` (centres unmarked) [(6), 2-(4-hydroxymorpholin-3-yl)-cyclohexane-1,3-dione], for which, in data set [1], the pKa1 stood at 3.00 and the pKa2 is given as 6.39. Besides, the TEAC in data set [2] is 1.1.

As to `Cc1cc(O)c(C2COCCN2O)c(=O)o1` (centres unmarked) [(9), 4-hydroxy-3-(4-hydroxymorpholin-3-yl)-6-methyl-2H-pyran-2-one], in data set [1], the pKa1 came to 2.85 and the pKa2 is given as 5.71. Moreover, the TEAC in data set [2] was 1.2. Moreover, the “Average % variation” value with healthy animals is -9.9%.

Take `Cc1c(C)c2c(c(C)c1O)CCC(C)(C(=O)O)O2` (centres unmarked) [Trolox, reference compound]: in data set [4], the “Inhibition of CHP-induced fluorescence” value was 10-50%.

On to `COc1cccc2c1C(=O)c1c(O)c3c(c(O)c1C2=O)C[C@@](O)(C(=O)CO)C[C@@H]3O[C@H]1C[C@H](N)[C@H](O)[C@H](C)O1` [doxorubicin, reference compound], for which, in data set [5], the “%D Brain/BWi” value was 93.1%, the “%D CAT” value is recorded as 86.8%, the “%D GPX” value amounted to 90.1% and the “%D GSH” value is on record as 87.5%. For the same compound, in data set [5], the “%D GST” value turned out to be 90.9%, the “%D Prot. Hmg” value stood at 108.3%, the “%D Prot. Ox” value came to 117.2% and the “%D SOD” value worked out at 85.7%. In the data set on healthy animals, the “Average % variation” value is listed as -11.4%, the CAT/pr was -13.2%, the GPX/pr is -9.9% and the GSH/pr is recorded as -12.5%. Further, in the data set on healthy animals, the GST/pr is -9.1%, the “Prot. Hmg” value amounted to 8.3%, the “Prot. Ox/pr” value is on record as 17.2% and the SOD/pr is on record as -14.3%. The Brain/BWi in the data set with healthy animals (50 mg/kg) is recorded as 6.9%. Besides, the Brain/BWi with healthy animals (listed as D, 50 mg/kg) was -6.9%.

For `O=C1O[C@H]([C@@H](O)CO)C(O)=C1O` [vitamin C, reference compound], the TEAC in data set [2] came out at 0.9.
